# Data taken from patent EP3049422B1, “INTUMESCENT COATINGS” (MIPA SE, priority 2013, dated 2015).
# Assay: Water solubility of the salts
# Format: physicochemical
# Settings: not given
# From the text: Organische Lösungsmittel tragen zur Umweltverschmutzung bei und deshalb ist es wünschenswert, Wasser als Basis für Reaktionen oder auch Lacke zu verwenden. […] Wir beobachteten, dass vor allem die Kombination mit Alkalimetallen zu einer sehr guten Löslichkeit führte.
# Ein wichtiges Kriterium für die Auswahl der Substanzen für eingehendere Studien, war deren Wasserlöslichkeit. Ausgeschlossen wurden vor allem Verbindungen, die höhere Kationen als die Alkalimetalle enthalten, da diese nur sehr schlecht löslich sind. Trotzdem wurde zumindest für zwei wasserunlösliche Salze versucht, sie als Suspensionen aufzubringen. Ausgewählt wurden dafür ALDA und Calcium(II)hydantoinat.
Molecule,Wasser löslich,Wasserlöslichkeit
"O=C1CN(CN2CC(=O)NC2=O)C(=O)N1 [1,1'-(Methylen) bishydantoin Kalium, Kalium(I)N,N'-methylenbishydantoinat]",+,
"O=C1CN(CN2CC(=O)NC2=O)C(=O)N1 [1,1'-(Methylen) bishydantoin Natrium, Natrium(I)N,N'-methylenbishydantoinat]",+,
"NC(=O)NC1NC(=O)NC1=O (stereo not shown) [Allantoin Calcium, Calcium(II)allantoinat]",+,
"NC(=O)NC1NC(=O)NC1=O (stereo not shown) [Allantoin Natrium, Natrium(I)allantoinat]",+,
Tetrakis(hydroxymethyl)phosphoniumhydantoinat,+,
"NC(=O)NC1NC(=O)NC1=O (stereo not shown) [Allantoin Kalium, Kalium(I)allantoinat]",+,
"CC(N1CC(=O)NC1=O)N1CC(=O)NC1=O [1,1'-(Methylmethylen) bishydantoin Calcium] [Calcium(II)N,N'-(methylmethylen)bishydantoinat]",+,
"O=C1CNC(=O)N1 [Hydantoin Calcium, Calcium(II)hydantoinat]",-,
"CC(N1CC(=O)NC1=O)N1CC(=O)NC1=O [1,1'-(Methylmethylen) bishydantoin Kalium] [Kalium(I)N,N'-(methylmethylen)bishydantoinat]",+,
"NC(=O)NC1NC(=O)NC1=O (stereo not shown) [Allantoin, reference compound]",,schlecht wasserlöslich
"O=C1CN(CN2CC(=O)[N-]C2=O)C(=O)[N-]1.OC[P+](CO)(CO)CO.OC[P+](CO)(CO)CO [Bis[tetrakis(hydroxymethyl)phosphonium]N,N'-methylenbishydantoinat]",+,
"Dihydroxyaluminiumallantoinat [Allantoin Al(OH)2*, reference compound]",-,
"O=C1CNC(=O)N1 [Hydantoin Tetramethylammonium, Tetramethylammoniumhydantoinat]",+,
"CC(N1CC(=O)NC1=O)N1CC(=O)NC1=O [1,1'-(Methylmethylen) bishydantoin Natrium] [Natrium(I)N,N'-(methylmethylen)bishydantoinat]",+,
"O=C1CNC(=O)N1 [Hydantoin Natrium, Natrium(I)hydantoinat]",+,
"O=C1CNC(=O)N1 [Hydantoin Kalium, Kalium(I)hydantoinat]",+,

# Same assay, conditions: in words
row,Molecule,Wasserlöslichkeit
1,"O=C1CNC(=O)N1 [Hydantoin Calcium, Calcium(II)hydantoinat]",wasserunlösliche
2,"Dihydroxyaluminiumallantoinat [Allantoin Al(OH)2*, reference compound]",wasserunlösliche
3,"O=C1CNC(=O)N1 [Hydantoin, reference compound]",schlecht wasserlöslich
